Measurements reported in US10071084B2, “Nanoparticle, method of preparating the same, and use of the nanoparticle” (Samsung Electronics Co., Ltd., priority 2013, dated 2018).

Test system: HepG2 liver cancer cells
Assay: Cytotoxicity by released nanoparticles containing SRF and BSA: cell viability, CCK-8 kit
Format: cell-based
Conditions: Homo sapiens, 50 μM SRF dissolved in DMSO, 3 hours incubation at 37° C., then 3 days in fresh medium, relative to DMSO-treated cells
Method: Liposomes that were sonicated were incubated with cells to confirm the cell viability.
The liposomes of Example 4 were sonicated at a temperature of 25° C. for 16 minutes by using a pool-type sonicator (Branson).
The sonicated liposomes, unsonicated liposomes, 50 μM of SRF (Santa Cruz Biotechnology, Inc.) dissolved in dimethyl sulfoxide (DMSO) (Aldrich), or DMSO itself was added to about 5,000 HepG2 liver cancer cells, followed by being incubated at a temperature of 37° C. for 3 hours. Here, the medium used in the incubation was exchanged with fresh medium. The cells were incubated for at a temperature of 37° C. for 3 days, and number of the cells was counted by using a CCK-8 kit (Dojindo). The cell viability was relatively calculated with respect to the number of the cells that were treated with DMSO, and the results were shown in FIG. 7 (1: DMSO, 2: SRF dissolved in DMSO, 3: liposomes that are not sonicated, 4: liposomes that are sonicated for 16 minutes).

**Q.** For `CNC(=O)c1cc(Oc2ccc(NC(=O)Nc3ccc(Cl)c(C(F)(F)F)c3)cc2)ccn1` [SRF, sorafenib], which viability at 50 µM is on record?
**A.** The viability at 50 µM was ~36%.
